Test results as given in ChEMBL document CHEMBL1201862, “PubChem BioAssay data set” (2004).
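Compound exposure: 48 hours, 5 concentrations, 96-well plates. Abbreviation: GI50, concentration required for 50% inhibition of growth.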 The source made the active and inactive calls. Rule as the data show it: active = GI50 up to about 1.1 µM and inactive = higher.

What was measured:
Assay in all cases: growth of human tumour cells (NCI), 48 h
SNB-75 = system: SNB-75
NCI-H460 = system: NCI-H460
DU-145 = system: DU-145
MDA-MB-231 = system: MDA-MB-231
SR = system: SR
SF-295 = system: SF-295
HCT-15 = system: HCT-15
RXF 393 = system: RXF 393
HCC 2998 = system: HCC 2998
KM12 = system: KM12
NCI-H226 = system: NCI-H226
SNB-19 = system: SNB-19
SK-MEL-5 = system: SK-MEL-5
A549 = system: A549
SF-539 = system: SF-539
NCI/ADR-RES = system: NCI/ADR-RES
NCI-H23 = system: NCI-H23
NCI-H522 = system: NCI-H522
OVCAR-5 = system: OVCAR-5
UACC-257 = system: UACC-257

| Compound | GI50 (SNB-75) | GI50 (NCI-H460) | GI50 (DU-145) | GI50 (MDA-MB-231) | GI50 (SR) | GI50 (SF-295) | GI50 (HCT-15) | GI50 (RXF 393) | GI50 (HCC 2998) | GI50 (KM12) | GI50 (NCI-H226) | GI50 (SNB-19) | GI50 (SK-MEL-5) | GI50 (A549) | GI50 (SF-539) | GI50 (NCI/ADR-RES) | GI50 (NCI-H23) | GI50 (NCI-H522) | GI50 (OVCAR-5) | GI50 (UACC-257) |
| --- | --- | --- | --- | --- | --- | --- | --- | --- | --- | --- | --- | --- | --- | --- | --- | --- | --- | --- | --- | --- |
| CCN(CC)c1ccc(/C=C2\CCc3ccc([N+](=O)[O-])cc3C2=O)cc1 | 2.52 µM (inactive) | 3.84 µM (inactive) | 6.01 µM (inactive) | 2.61 µM (inactive) | 0.324 µM (active) | 1.4 µM (inactive) | 0.64 µM | 2.99 µM (inactive) | 10.1 µM (inactive) | 0.582 µM (active) | > 100 µM (inactive) | 1.42 µM (inactive) | 1.71 µM (inactive) | 4.58 µM (inactive) | 2.25 µM (inactive) | 1.03 µM (active) | 7.62 µM (inactive) | 0.912 µM (active) | > 100 µM (inactive) | – |
| CSc1nc(=S)[nH]c2[nH]nc(C)c12 | > 100 µM (inactive) | > 100 µM (inactive) | > 100 µM (inactive) | > 100 µM (inactive) | 94.4 µM (inactive) | – | > 100 µM | > 100 µM (inactive) | > 100 µM (inactive) | > 100 µM (inactive) | > 100 µM (inactive) | > 100 µM (inactive) | > 100 µM (inactive) | > 100 µM (inactive) | > 100 µM (inactive) | > 100 µM (inactive) | > 100 µM (inactive) | 55 µM (inactive) | > 100 µM (inactive) | > 100 µM (inactive) |
| CC1=NN(c2cc(Cl)c(S(=O)(=O)O)cc2Cl)C2(C1)C(Cl)C(=O)N2c1nc2ccccc2s1 (centres undefined) | > 100 µM (inactive) | > 100 µM (inactive) | 29.3 µM (inactive) | 42.6 µM (inactive) | 89.9 µM (inactive) | – | > 100 µM | > 100 µM (inactive) | > 100 µM (inactive) | 97.9 µM (inactive) | 53.5 µM (inactive) | > 100 µM (inactive) | > 100 µM (inactive) | > 100 µM (inactive) | > 100 µM (inactive) | > 100 µM (inactive) | 91 µM (inactive) | 19.6 µM (inactive) | > 100 µM (inactive) | > 100 µM (inactive) |
| O=P1(Oc2ccc(Cl)cc2)OCCS1 (centres undefined) | > 100 µM (inactive) | > 100 µM (inactive) | > 100 µM (inactive) | > 100 µM (inactive) | > 100 µM (inactive) | > 100 µM (inactive) | > 100 µM | > 100 µM (inactive) | > 100 µM (inactive) | – | > 100 µM (inactive) | > 100 µM (inactive) | > 100 µM (inactive) | > 100 µM (inactive) | > 100 µM (inactive) | > 100 µM (inactive) | > 100 µM (inactive) | > 100 µM (inactive) | > 100 µM (inactive) | > 100 µM (inactive) |
| CC1(C)OCN(c2ccc(Cl)cc2)Cn2c1nc1ccccc12 | > 100 µM (inactive) | > 21.7 µM (inactive) | 6.85 µM (inactive) | 3.18 µM (inactive) | 9.25 µM (inactive) | – | 0.431 µM | 62.1 µM (inactive) | 3.56 µM (inactive) | 1.61 µM (inactive) | > 100 µM (inactive) | > 71.3 µM (inactive) | 0.571 µM (active) | 6.44 µM (inactive) | 6.5 µM (inactive) | 27 µM (inactive) | 18.1 µM (inactive) | 12.6 µM (inactive) | > 100 µM (inactive) | 39.1 µM (inactive) |
| CCOC(=O)Cn1c(=O)c2nc(SC)sc2n(-c2ccc(C)cc2)c1=S | 9.71 µM (inactive) | 48 µM (inactive) | 98.4 µM (inactive) | 52.7 µM (inactive) | > 100 µM (inactive) | > 71.6 µM (inactive) | > 100 µM | 22.8 µM (inactive) | > 56.9 µM (inactive) | – | 23.8 µM (inactive) | 20.4 µM (inactive) | > 100 µM (inactive) | > 60.4 µM (inactive) | 36.1 µM (inactive) | 50.6 µM (inactive) | > 49 µM (inactive) | 79.6 µM (inactive) | > 100 µM (inactive) | > 100 µM (inactive) |
